System: 817829-284-R-J1-PDC complex spheroids, viability
Assay: Anticancer human tumor 817829-284-R-J1-PDC patient-derived colon adenocarcinoma cell line growth inhibition [CLK]
Conditions: for IC50: curve of first compound; for viability, T/C: stronger effect = lower value
Outline: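 Multi-cell-type spheroids combined patient-derived tumor cells with HUVEC endothelial cells and human mesenchymal stem cells. Paired agents were dosed in half-log steps down from about clinical Cmax, or from 10 microM where Cmax was unknown.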

[1] = second compound 0.0316 µM, first compound 0.00949 µM
[2] = second compound 0.0316 µM, first compound 0.03 µM
[3] = second compound 0.0316 µM, first compound 0.0949 µM
[4] = second compound 0.0316 µM, first compound 0.3 µM
[5] = second compound 0.1 µM, first compound 0.00949 µM
[6] = second compound 0.1 µM, first compound 0.03 µM
[7] = second compound 0.1 µM, first compound 0.0949 µM
[8] = second compound 0.1 µM, first compound 0.3 µM
[9] = second compound 0.316 µM, first compound 0.00949 µM
[10] = second compound 0.316 µM, first compound 0.03 µM
[11] = second compound 0.316 µM, first compound 0.0949 µM
[12] = second compound 0.316 µM, first compound 0.3 µM
[13] = second compound 1 µM, first compound 0.00949 µM
[14] = second compound 1 µM, first compound 0.03 µM
[15] = second compound 1 µM, first compound 0.0949 µM
[16] = second compound 1 µM, first compound 0.3 µM
[17] = second compound 3.16 µM, first compound 0.00949 µM
[18] = second compound 3.16 µM, first compound 0.03 µM
[19] = second compound 3.16 µM, first compound 0.0949 µM
[20] = second compound 3.16 µM, first compound 0.3 µM
[21] = second compound 10 µM, first compound 0.00949 µM
[22] = second compound 10 µM, first compound 0.03 µM
[23] = second compound 10 µM, first compound 0.0949 µM
[24] = second compound 10 µM, first compound 0.3 µM
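Also: spheroids exposed to the agents for seven days before readout.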

C=CC(=O)Nc1cc(Nc2nccc(-c3cn(C)c4ccccc34)n2)c(OC)cc1N(C)CCN(C)C + CN1CCN(c2cc(C(=O)Nc3cc4cc(-c5cnn(C)c5)ccc4cn3)ccn2)CC1
IC50 (second compound 0.0316 µM): > 300 nM
IC50 (second compound 0.1 µM): < 0.949 nM
IC50 (second compound 0.316 µM): < 0.949 nM
IC50 (second compound 1 µM): < 0.949 nM
IC50 (second compound 3.16 µM): < 0.949 nM
IC50 (second compound 10 µM): < 0.949 nM
viability, T/C (second compound 0.0316 µM, first compound 0.000949 µM): 51.7%
viability, T/C (second compound 0.0316 µM, first compound 0.003 µM): 48.2%
viability, T/C [1]: 57.6%
viability, T/C [2]: 58.5%
viability, T/C [3]: 67.9%
viability, T/C [4]: 41.1%
viability, T/C (second compound 0.1 µM, first compound 0.000949 µM): 16.4%
viability, T/C (second compound 0.1 µM, first compound 0.003 µM): 17.8%
viability, T/C [5]: 16.3%
viability, T/C [6]: 19.6%
viability, T/C [7]: 14.4%
viability, T/C [8]: 10.9%
viability, T/C (second compound 0.316 µM, first compound 0.000949 µM): 1.39%
viability, T/C (second compound 0.316 µM, first compound 0.003 µM): 1.52%
viability, T/C [9]: 1.82%
viability, T/C [10]: 1.58%
viability, T/C [11]: 1.13%
viability, T/C [12]: 0.72%
viability, T/C (second compound 1 µM, first compound 0.000949 µM): 0.08%
viability, T/C (second compound 1 µM, first compound 0.003 µM): 0.12%
viability, T/C [13]: 0.1%
viability, T/C [14]: 0.09%
viability, T/C [15]: 0.17%
viability, T/C [16]: 0.09%
viability, T/C (second compound 3.16 µM, first compound 0.000949 µM): 0.14%
viability, T/C (second compound 3.16 µM, first compound 0.003 µM): 0.16%
viability, T/C [17]: 0.18%
viability, T/C [18]: 0.12%
viability, T/C [19]: 0.1%
viability, T/C [20]: 0.1%
viability, T/C (second compound 10 µM, first compound 0.000949 µM): 0.14%
viability, T/C (second compound 10 µM, first compound 0.003 µM): 0.13%
viability, T/C [21]: 0.13%
viability, T/C [22]: 0.13%
viability, T/C [23]: 0.15%
viability, T/C [24]: 0.13%

NC(=O)C(=Cn1cnc(-c2cc(C(F)(F)F)cc(C(F)(F)F)c2)n1)c1cncnc1 + CN1CCN(c2cc(C(=O)Nc3cc4cc(-c5cnn(C)c5)ccc4cn3)ccn2)CC1
IC50 (second compound 0.0316 µM): < 9.49 nM
IC50 (second compound 0.1 µM): < 9.49 nM
IC50 (second compound 0.316 µM): < 9.49 nM
IC50 (second compound 1 µM): < 9.49 nM
IC50 (second compound 3.16 µM): < 9.49 nM
IC50 (second compound 10 µM): < 9.49 nM
viability, T/C [1]: 21.1%
viability, T/C [2]: 19.4%
viability, T/C [3]: 8.87%
viability, T/C [4]: 2.37%
viability, T/C (second compound 0.0316 µM, first compound 0.949 µM): 1.3%
viability, T/C (second compound 0.0316 µM, first compound 3 µM): 0.87%
viability, T/C [5]: 7.2%
viability, T/C [6]: 4.72%
viability, T/C [7]: 1.8%
viability, T/C [8]: 0.15%
viability, T/C (second compound 0.1 µM, first compound 0.949 µM): 0.19%
viability, T/C (second compound 0.1 µM, first compound 3 µM): 0.22%
viability, T/C [9]: 0.46%
viability, T/C [10]: 0.1%
viability, T/C [11]: 0.07%
viability, T/C [12]: 0.05%
viability, T/C (second compound 0.316 µM, first compound 0.949 µM): 0.06%
viability, T/C (second compound 0.316 µM, first compound 3 µM): 0.17%
viability, T/C [13]: 0.06%
viability, T/C [14]: 0.09%
viability, T/C [15]: 0.13%
viability, T/C [16]: 0.1%
viability, T/C (second compound 1 µM, first compound 0.949 µM): 0.12%
viability, T/C (second compound 1 µM, first compound 3 µM): 0.29%
viability, T/C [17]: 0.06%
viability, T/C [18]: 0.16%
viability, T/C [19]: 0.19%
viability, T/C [20]: 0.12%
viability, T/C (second compound 3.16 µM, first compound 0.949 µM): 0.17%
viability, T/C (second compound 3.16 µM, first compound 3 µM): 0.21%
viability, T/C [21]: 0.02%
viability, T/C [22]: 0.09%
viability, T/C [23]: 0.13%
viability, T/C [24]: 0.1%
viability, T/C (second compound 10 µM, first compound 0.949 µM): 0.17%
viability, T/C (second compound 10 µM, first compound 3 µM): 0.11%

Nc1ccccc1NC(=O)c1ccc(CNC(=O)OCc2cccnc2)cc1 + CN1CCN(c2cc(C(=O)Nc3cc4cc(-c5cnn(C)c5)ccc4cn3)ccn2)CC1
IC50 (second compound 0.0316 µM): 223 nM
IC50 (second compound 0.1 µM): < 31.6 nM
IC50 (second compound 0.316 µM): < 31.6 nM
IC50 (second compound 1 µM): < 31.6 nM
IC50 (second compound 3.16 µM): < 31.6 nM
IC50 (second compound 10 µM): < 31.6 nM
viability, T/C (second compound 0.0316 µM, first compound 0.0316 µM): 61.1%
viability, T/C (second compound 0.0316 µM, first compound 0.1 µM): 70.6%
viability, T/C (second compound 0.0316 µM, first compound 0.316 µM): 39.5%
viability, T/C (second compound 0.0316 µM, first compound 1 µM): 21.9%
viability, T/C (second compound 0.0316 µM, first compound 3.16 µM): 3.59%
viability, T/C (second compound 0.0316 µM, first compound 10 µM): 0.06%
viability, T/C (second compound 0.1 µM, first compound 0.0316 µM): 15.1%
viability, T/C (second compound 0.1 µM, first compound 0.1 µM): 14.2%
viability, T/C (second compound 0.1 µM, first compound 0.316 µM): 13.4%
viability, T/C (second compound 0.1 µM, first compound 1 µM): 5.61%
viability, T/C (second compound 0.1 µM, first compound 3.16 µM): 0.84%
viability, T/C (second compound 0.1 µM, first compound 10 µM): 0.03%
viability, T/C (second compound 0.316 µM, first compound 0.0316 µM): 1.55%
viability, T/C (second compound 0.316 µM, first compound 0.1 µM): 1.54%
viability, T/C (second compound 0.316 µM, first compound 0.316 µM): 1.41%
viability, T/C (second compound 0.316 µM, first compound 1 µM): 0.56%
viability, T/C (second compound 0.316 µM, first compound 3.16 µM): 0.03%
viability, T/C (second compound 0.316 µM, first compound 10 µM): 0.03%
viability, T/C (second compound 1 µM, first compound 0.0316 µM): 0.11%
viability, T/C (second compound 1 µM, first compound 0.1 µM): 0.14%
viability, T/C (second compound 1 µM, first compound 0.316 µM): 0.11%
viability, T/C (second compound 1 µM, first compound 1 µM): 0.1%
viability, T/C (second compound 1 µM, first compound 3.16 µM): 0.05%
viability, T/C (second compound 1 µM, first compound 10 µM): 0.06%
viability, T/C (second compound 3.16 µM, first compound 0.0316 µM): 0.1%
viability, T/C (second compound 3.16 µM, first compound 0.1 µM): 0.12%
viability, T/C (second compound 3.16 µM, first compound 0.316 µM): 0.15%
viability, T/C (second compound 3.16 µM, first compound 1 µM): 0.15%
viability, T/C (second compound 3.16 µM, first compound 3.16 µM): 0.16%
viability, T/C (second compound 3.16 µM, first compound 10 µM): 0.22%
viability, T/C (second compound 10 µM, first compound 0.0316 µM): 0.04%
viability, T/C (second compound 10 µM, first compound 0.1 µM): 0.07%
viability, T/C (second compound 10 µM, first compound 0.316 µM): 0.1%
viability, T/C (second compound 10 µM, first compound 1 µM): 0.3%
viability, T/C (second compound 10 µM, first compound 3.16 µM): 0.1%
viability, T/C (second compound 10 µM, first compound 10 µM): 0.1%

Reference: PubChem BioAssay AID2060599 (Molecular Pharmacology Branch, DTP, NCI, 2025)
